# In patent US5552267A, “Solution for prolonged organ preservation” (priority 1994, dated 1996):
# What was measured:
# [1] = test system: vascular smooth muscle; settings: cited from earlier work
# [2] = test system: lung; assay: orthotopic rat left lung transplantation, nitroglycerin series; format: in vivo, rat (male Lewis)
# [3] = test system: lung; settings: in vivo; cited from earlier work
# [4] = test system: pulmonary vasculature; settings: in vivo; cited from earlier work
# [5] = test system: heart; assay: heterotopic rat cardiac transplant, cAMP series, graft survival/score; format: in vivo, rat (male Sprague-Dawley)
# Text: Preservation solutions included lactated Ringer's (LR) solution Baxter, Edison, N.J.), or LR supplemented with rolipram ZK 62 711, Schering AG, Berlin, Germany), indolidan LY195115, Lilly Research Laboratories, Indianapolis, Ind.), sodium butyrate, 8-bromoadenosine, 8-bromoadenosine 3',5'monophosphate (8-Br-cAMP; Sigma Chemical Co., St. Louis, Mo.), the Rp -isomer of adenosine 3',5'monophosphorothioate (Rp -cAMPS; Biolog, La Jolla, Calif.), the Sp isomer of adenosine 3',5'monophosphorothioate (Sp -cAMPS; Biolog), and N^6,O^2' -dibutyryl adenosine 3',5'monophosphate sodium (db-cAMP; Aldrich, Milwaukee, Wis.). Components were combined within 4 hrs of donor cardiectomy, and preservation solutions were kept at 4° C. University of Wisconsin solution (UW)(2-4 was purchased from Dupont (Wilmington, Del.).
# Donor Cardiectomy. Male Sprague-Dawley rats (350-450 grams, Camm Research, Wayne, N.J.) were anesthetized, heparinized (1000 units of heparin given intravenously), and the donor heart removed in the following manner; a midline incision was performed, followed by rapid cardioplegic arrest with 5 ml of cold (4° C.), high potassium solution (NACl, 0.9%, and KCl, 40 mEq/L). The heart was maintained at 4° C. throughout the harvest procedure by the application of a cold saline soaked gauze over its surface. […] The aortic root was flushed with ≈15 ml of the cold preservation solution until the coronary arteries became visibly clear, and the heart remained in the cold storage solution for the indicated duration until the time of transplantation.
# Heterotopic Transplant. The same breed/size of rat was used, and similarly anesthetized, but not given heparin. A midline abdominal incision was made, and the infrarenal aorta and vena cava were occluded with a side-biting vascular clamp and longitudinal incisions were made in each vessel. The donor heart was removed from the preservation solution and kept moist with saline-soaked gauze. […] Blood flow was restored to the graft (by removal of the clamp) exactly one hour after removal from the cold preservation solution. […] Ten minutes after removal of the cross-clamp, an electrocardiogram was taken (Grass Polygraph, Quincy, Mass.) and the heart was judged by the same blinded investigators throughout based on the presence/absence of regular contractions and a transplant score (0-5, worst-best, respectively) employing the following criteria: contraction (poor=0, average=1, vigorous=2), tissue turgor (hard=0, average=1, soft=2), and color (dusky=0, pink=1). […] The heterotopic cardiac transplant experiments performed in these studies were done by a single surgeon after establishment of this model and acquisition of surgical expertise, with control and experimental groups interspersed throughout the study period to prevent a time-dependent bias pertaining to surgical skills.
# Statistics. Graft survival data and transplant scores were analyzed using the Kruskal-Wallis non-parametric analysis of variance (38). Comparisons of individual treatments were performed using the procedure described by Dunn (39). In addition, the effect of db-cAMP on the time-course of graft failure was quantified by multivariate logistic regression. Graft myeloperoxidase data, microsphere data, and cAMP/adenylate cyclase/phosphodiesterase data from experiments with cultured vascular smooth muscle cells were analyzed by t-tests when 2 treatments were performed or by analysis of variance when 3 or more treatments were performed. In the latter case, post-hoc comparison of treatment groups were tested using Tukey's procedure. Values are expressed as means ±SEM, with a p <0.05 considered statistically significant.
# [6] = test system: cardiac graft vasculature; assay: graft blood flow by latex microspheres, cAMP series; format: in vivo, rat
# Description: Perfusion of Donor Graft. Ten minutes after restoration of blood flow, a suspension of latex microspheres (0.5 ml of 10 μm diameter microspheres at a final concentration in 10^6 /ml in phosphate-buffered saline containing Tween 80, 0.05%) (E-Z Trac, Los Angeles, Calif.) was injected over 30 seconds into the donor aortic root. After one minute, the heart was rapidly excised, rinsed free of intracavitary and surface blood, and the atria and great vessels were removed. The ventricles were cut into pieces, each piece weighed, and then digested by alkaline hydrolysis, centrifuged and washed according to the manufacturer's instructions. Beads in each piece were then counted in an Improved Neubauer hemocytometer VWR Scientific, Piscataway, N.J.). Results are expressed as number of spheres per (40X) field per gram of ventricle. A minimum of ten fields were counted and the mean ± SEM is reported.
# [7] = test system: neutrophil infiltration of cardiac graft; assay: graft myeloperoxidase activity/histology (leukocyte infiltration), cAMP series; format: in vivo, rat
# Description: Myeloperoxidase assay/histology. Ten minutes following restoration of blood flow, transplanted hearts were excised and the aortic root was flushed for 5 minutes (rate of 2 ml/minute controlled by roller pump) with normal saline (Baxter, Edison, N.J.), the atria and great vessels were removed, and intracavitary blood was evacuated. Remaining ventricular pieces were weighed, and homogenized in phosphate buffer (50 mM; pH 7.4, 5 ml/gm of tissue) containing hexadecyltrimethylammonium bromide (0.5%; HTAB, [Sigma]) and frozen at -80° C. The myeloperoxidase assay was performed, as described (29), by thawing the sample, centrifuging at 40,000 g for 10 minutes at 4° C., and decanting the supernatant, which was assayed for myeloperoxidase activity using standard chromogenic spectrophotometric technique: test sample (0.1 ml) was added to phosphate buffer (50 mM; pH 6.0) containing O-dianisidine dihydrochloride (Sigma), hydrogen peroxide (0.0005%), and change in absorbance at 460 nm was measured over 5 min (increase in OD was linear over this time interval). For histologic study, cardiac graft samples were fixed in an ascending series of aldehydes, embedded, sectioned, and stained with hematoxylin and eosin.
# [8] = in vitro toxicity to endothelial cells; format: cell-based; settings: data not shown, read-out: concentration toxic to endothelial cells
molecule,measurement,setting,value
nitric oxide [NO],minimal concentration relaxing vascular smooth muscle,[1],less than 15 nM
NNc1nncc2ccccc12 [hydralazine],pulmonary artery flushing time,[2]; 30 mL at constant pressure during harvest,69.3 ± 4.5 s
same,recipient survival,"[2]; 6 h in EC, 30 min, supplements NTG 0.1 mg/mL, hydralazine 0.02 μg/mL",33%
same,effect on lung preservation,[3],not proven beneficial in lung preservation
"CCCOc1ccccc1-c1nc2[nH]nnc2c(=O)[nH]1 [M&B 22948, 2-o-propoxyphenyl-8-azapurin-6-one]",effect on vasodilators,[4],"augments the pulmonary vasodilating effects of NO(cGMP)-dependent vasodilators, but not those of a cAMP-dependent vasodilator"
"CCCC(=O)Nc1ncnc2c1ncn2[C@@H]1O[C@@H]2COP(=O)(O)O[C@H]2[C@H]1OC(=O)CCC [db-cAMP, N^6, O^2' -dibutyryl adenosine 3',5'monophosphate]",concentration for optimal/maximal preservation,[5]; 12 h in LR,1 to 2 mM
same,graft survival,[5]; 12 h preservation in LR,90%
same,graft blood flow,"[6]; 12 h in LR, db-cAMP 2 mM vs LR alone",significant increase in blood flow
same,fold increase in graft blood flow,[6]; vs without db-cAMP,5.5 fold
same,fold decrease in neutrophil infiltration / myeloperoxidase activity,"[7]; 12 h, db-cAMP 2 mM in LR vs LR alone",3.2 fold
same,PMNs in blood vessel by histology,"[7]; 12 h in LR, 10 min reperfusion, db-cAMP 2 mM where added",no PMNs
same,MCC,[8],> 4 mM
